The target in this assay is T1, RproOR1•RproOrco (Rhodnius prolixus, UniProt T1H977).
T1 sequence (T1H977 1-409): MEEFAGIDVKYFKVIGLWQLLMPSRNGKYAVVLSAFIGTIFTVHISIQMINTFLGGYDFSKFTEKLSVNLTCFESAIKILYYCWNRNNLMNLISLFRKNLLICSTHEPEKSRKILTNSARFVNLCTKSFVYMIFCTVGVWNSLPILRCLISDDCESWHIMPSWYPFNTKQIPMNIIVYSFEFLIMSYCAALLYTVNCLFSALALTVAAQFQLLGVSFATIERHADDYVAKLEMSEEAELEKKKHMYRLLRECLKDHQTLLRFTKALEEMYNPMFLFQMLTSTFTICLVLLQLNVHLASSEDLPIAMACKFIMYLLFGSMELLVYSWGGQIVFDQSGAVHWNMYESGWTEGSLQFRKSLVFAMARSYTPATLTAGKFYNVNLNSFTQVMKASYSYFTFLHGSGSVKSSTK
In words: two-electrode voltage clamp, Xenopus oocytes. Conditions: agonist; -70 mV; coexpressed with RproOrco. The format is cell-based. In general terms: Two-electrode voltage clamp is typically applied to oocytes expressing channels or transporters.

As to `CC/C=C\CCOC(C)=O` [(Z)-3-hexenyl acetate], the “two-electrode voltage clamp, Xenopus oocytes” value is “moderate responses to 3-methyl-1-butanol, methyl butyrate, (Z)-3-hexenyl acetate”. Turning to `CCCCC=O` [pentanal], the “two-electrode voltage clamp, Xenopus oocytes” value is “moderate responses to 3-methyl-1-butanol, methyl butyrate, (Z)-3-hexenyl acetate, pentanal”.

Source of the values: article PMC6278923 (Insect biochemistry and molecular biology, 2018).
